{
  "source": "paper PMC7645366",
  "about": "(EMBO Molecular Medicine, 2020)",
  "key": {"LLO [1]": {"target": "T1, LLO (Listeria monocytogenes serovar 1/2a, UniProt P13128)", "T1 sequence (P13128 25-529)": "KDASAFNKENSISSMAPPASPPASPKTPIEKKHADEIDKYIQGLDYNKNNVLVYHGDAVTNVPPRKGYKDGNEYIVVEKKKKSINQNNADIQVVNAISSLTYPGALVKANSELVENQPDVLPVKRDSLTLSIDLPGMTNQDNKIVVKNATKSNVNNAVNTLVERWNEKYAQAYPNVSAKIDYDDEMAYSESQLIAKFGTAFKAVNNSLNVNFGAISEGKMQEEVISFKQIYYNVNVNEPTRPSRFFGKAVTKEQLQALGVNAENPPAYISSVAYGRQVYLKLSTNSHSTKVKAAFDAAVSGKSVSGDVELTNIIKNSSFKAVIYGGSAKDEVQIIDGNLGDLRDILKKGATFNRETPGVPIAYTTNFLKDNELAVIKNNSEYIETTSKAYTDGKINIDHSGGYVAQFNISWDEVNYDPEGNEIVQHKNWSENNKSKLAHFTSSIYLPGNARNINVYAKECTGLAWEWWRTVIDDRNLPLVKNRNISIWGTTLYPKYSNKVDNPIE", "assay": "Cytokine ELISA, THP-1 macrophages stimulated with LLO", "format": "cell-based", "details": "LLO 0.5 μg/ml, 100uM, 18 h", "protocol": "(§1) Human monocytic leukemia THP‐1 cells (ATCC TIB‐202) were cultivated in R10 medium and maintained at density of 10^6 cells/ml. For differentiation into macrophages, THP‐1 cells were treated for 48 h with 20 ng/ml of phorbol myristate acetate (Sigma)."}, "PLY [2]": {"target": "T2, PLY (Streptococcus pneumoniae serotype 4, UniProt P0C2J9)", "T2 sequence (P0C2J9 whole entry, looked up)": "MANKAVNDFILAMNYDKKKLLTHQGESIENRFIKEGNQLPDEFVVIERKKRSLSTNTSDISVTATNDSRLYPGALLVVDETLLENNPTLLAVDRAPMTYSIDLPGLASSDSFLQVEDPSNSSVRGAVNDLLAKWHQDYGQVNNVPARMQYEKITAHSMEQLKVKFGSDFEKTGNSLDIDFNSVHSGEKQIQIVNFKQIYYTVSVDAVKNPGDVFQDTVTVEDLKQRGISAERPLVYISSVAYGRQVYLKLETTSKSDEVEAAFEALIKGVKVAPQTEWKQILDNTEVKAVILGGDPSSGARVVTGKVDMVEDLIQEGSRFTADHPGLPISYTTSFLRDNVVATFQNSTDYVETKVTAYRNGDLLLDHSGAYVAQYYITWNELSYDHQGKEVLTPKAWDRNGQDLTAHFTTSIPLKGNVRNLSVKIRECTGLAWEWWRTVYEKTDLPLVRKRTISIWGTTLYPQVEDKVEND", "format": "cell-based"}, "LLO [3]": {"target": "T1, LLO", "assay": "LDH cytotoxicity assay, THP-1 macrophages, LLO", "format": "cell-based", "details": "THP-1, LLO 0.5 μg/ml, 100 μM, 18 h", "protocol": "as §1\nCytotoxicity was determined by measuring the activity of lactate dehydrogenase enzyme released into the culture supernatant using the Cytotoxicity Detection kit (Roche) according to the manufacturer's instructions. The percentage cytotoxicity was calculated by ratio to 100% lysis control (0.1% saponin)."}, "PLY [4]": {"target": "T2, PLY", "format": "cell-based", "details": "100uM; 18 h"}, "PLY [5]": {"target": "T2, PLY", "details": "18 h"}, "SLO": {"target": "SLO (Streptococcus pyogenes serotype M1, UniProt P0C0I3)", "sequence (P0C0I3 34-571 limits assumed)": "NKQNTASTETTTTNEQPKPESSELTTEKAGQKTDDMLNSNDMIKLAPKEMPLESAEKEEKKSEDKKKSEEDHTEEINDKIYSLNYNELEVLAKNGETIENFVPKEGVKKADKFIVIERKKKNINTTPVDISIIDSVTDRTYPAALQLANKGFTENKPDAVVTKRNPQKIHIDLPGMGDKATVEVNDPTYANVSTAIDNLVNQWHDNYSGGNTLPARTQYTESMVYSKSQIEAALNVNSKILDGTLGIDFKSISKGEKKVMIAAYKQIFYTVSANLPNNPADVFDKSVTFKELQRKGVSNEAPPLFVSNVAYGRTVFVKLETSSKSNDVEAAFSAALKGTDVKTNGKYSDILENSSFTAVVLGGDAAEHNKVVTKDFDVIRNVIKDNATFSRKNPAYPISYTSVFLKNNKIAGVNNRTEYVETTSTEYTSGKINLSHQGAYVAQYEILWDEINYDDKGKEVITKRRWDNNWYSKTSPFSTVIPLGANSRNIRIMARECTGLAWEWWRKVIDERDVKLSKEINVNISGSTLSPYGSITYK", "format": "cell-based", "details": "100uM; 18 h"}},
  "note": "Where “and” joins values, the source holds several entries; their conditions need not be identical. Equal values may be shown once. Read-outs that look alike come from different tables or passages of the source.",
  "data": [
    {"compound": "CC(C)CCC[C@@H](C)[C@H]1CC[C@H]2[C@@H]3CC=C4C[C@@H](O)CC[C@]4(C)[C@H]3CC[C@]12C", "note": "[CHO, Cholesterol, reference compound]", "values": [
      {"measurement": "IL-8 levels in THP-1 macrophages", "setting": "LLO [1]; experiment 1 of 3", "value": 112.8, "unit": "pg/mL"},
      {"measurement": "IL-8 levels in THP-1 macrophages", "setting": "LLO [1]; experiment 2 of 3", "value": 87.2, "unit": "pg/mL"},
      {"measurement": "IL-8 levels in THP-1 macrophages", "setting": "LLO [1]; experiment 3 of 3", "value": 126.9, "unit": "pg/mL"},
      {"measurement": "cytolysis by PLY in live imaging", "setting": "PLY [2]", "value": "protection from PLY induced cytolysis"},
      {"measurement": "% cytotoxicity relative to positive control (lysis buffer), LDH", "setting": "LLO [3]; experiment 1 of 4", "value": 42.88, "unit": "%"},
      {"measurement": "% cytotoxicity relative to positive control (lysis buffer), LDH", "setting": "LLO [3]; experiment 2 of 4", "value": 43.52, "unit": "%"},
      {"measurement": "% cytotoxicity relative to positive control (lysis buffer), LDH", "setting": "LLO [3]; experiment 3 of 4", "value": 31.62, "unit": "%"},
      {"measurement": "% cytotoxicity relative to positive control (lysis buffer), LDH", "setting": "LLO [3]; experiment 4 of 4", "value": 53.89, "unit": "%"},
      {"measurement": "IL-8 levels in THP-1 macrophages", "setting": "PLY [4]", "value": "104 pg/mL and 72.9 pg/mL and 80.5 pg/mL"},
      {"measurement": "% cytotoxicity relative to positive control (lysis buffer), LDH", "setting": "PLY [5]; 100 μM", "value": "27.36% and 42.05% and 42.16%"},
      {"measurement": "% cytotoxicity relative to positive control (lysis buffer), LDH", "setting": "PLY [5]", "value": 35.29, "unit": "%"},
      {"measurement": "IL-8 levels in THP-1 macrophages", "setting": "SLO", "value": "79.6 pg/mL and 72.8 pg/mL and 144.9 pg/mL"}
    ]},
    {"compound": "Bovine serum albumin [BSA]", "values": [
      {"measurement": "cytolysis by PLY in live imaging", "setting": "PLY [2]", "value": "cytolysis"}
    ]}
  ]
}
